Measured values published in US20080070865A1, “TRIPHENYLPHOSPHINE OXIDE DERIVATIVES AND USES THEREOF” (Redpoint Bio Corporation, priority 2006, published 2008).

molecular target: T1, human TRPM5 ion channel (Homo sapiens, UniProt Q9NZQ8); test: TRPM5 FLIPR membrane potential assay; format: cell-based; conditions: HEK293 cells stably expressing human TRPM5, membrane potential dye, stimulation with 3 μM ATP
T1 construct: expressed in transfected cells
T1 sequence (Q9NZQ8 1-1165): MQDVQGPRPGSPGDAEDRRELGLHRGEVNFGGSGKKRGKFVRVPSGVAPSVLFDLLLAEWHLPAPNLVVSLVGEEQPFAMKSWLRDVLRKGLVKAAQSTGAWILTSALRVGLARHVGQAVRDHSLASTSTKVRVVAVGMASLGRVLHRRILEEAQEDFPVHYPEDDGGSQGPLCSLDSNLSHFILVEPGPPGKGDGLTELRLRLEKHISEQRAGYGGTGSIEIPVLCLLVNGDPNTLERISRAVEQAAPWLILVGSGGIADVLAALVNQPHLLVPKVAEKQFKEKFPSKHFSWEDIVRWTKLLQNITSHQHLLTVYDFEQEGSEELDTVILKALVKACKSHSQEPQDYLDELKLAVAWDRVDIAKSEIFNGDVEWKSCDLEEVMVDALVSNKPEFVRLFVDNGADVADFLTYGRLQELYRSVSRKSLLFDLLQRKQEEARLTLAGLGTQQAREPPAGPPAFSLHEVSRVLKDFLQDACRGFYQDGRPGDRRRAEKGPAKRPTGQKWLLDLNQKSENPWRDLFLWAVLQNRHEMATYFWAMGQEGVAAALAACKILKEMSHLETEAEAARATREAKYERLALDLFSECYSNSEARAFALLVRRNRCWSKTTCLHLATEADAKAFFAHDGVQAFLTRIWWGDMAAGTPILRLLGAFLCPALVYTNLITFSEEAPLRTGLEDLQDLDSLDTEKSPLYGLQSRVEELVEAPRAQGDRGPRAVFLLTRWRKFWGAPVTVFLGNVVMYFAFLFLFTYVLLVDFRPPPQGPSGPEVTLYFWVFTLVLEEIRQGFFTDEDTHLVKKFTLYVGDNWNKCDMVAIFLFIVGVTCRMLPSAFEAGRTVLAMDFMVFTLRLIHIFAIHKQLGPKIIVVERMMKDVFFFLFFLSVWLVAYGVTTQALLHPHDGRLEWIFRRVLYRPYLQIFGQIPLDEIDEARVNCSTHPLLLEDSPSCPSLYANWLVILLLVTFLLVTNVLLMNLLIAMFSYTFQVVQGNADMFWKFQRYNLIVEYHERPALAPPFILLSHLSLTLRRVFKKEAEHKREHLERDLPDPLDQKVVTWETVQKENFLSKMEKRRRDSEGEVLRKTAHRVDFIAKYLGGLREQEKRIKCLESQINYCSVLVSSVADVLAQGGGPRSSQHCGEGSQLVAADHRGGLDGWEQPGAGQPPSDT
Method: The activity of human TRPM5 ion channel was measured in live cells on a fluorescent imaging plate reader (FLIPR). The basis of the assay (shown in FIG. 1) is the calcium-dependent activation of the ion channel which occurs by activation of a G-protein coupled receptor (GPCR). GPCR activation by an appropriate agonist causes a transient increase in […] Ca^2+ ion concentration which in turn causes the ion channel to open, letting in Na^+ ions. This influx causes a change in the membrane potential of the cell which can be monitored as a change in the fluorescent signal from voltage-dependent (membrane potential) fluorescent dyes. […] For the screening assay, the human TRPM5 gene was cloned, put into HEK293 cells, and a stable, high expression clone was used for screening. Cells were grown in standard media at 37° C. The day before screening, the cells were removed from flasks and added to 384 well clear bottom plates (8K cells in 20 μL/well). On the assay day, 20 μL of membrane potential dye (Part No. R8123, Molecular Devices Corp.) was added to the cells and dye was allowed to be taken up, i.e., load, into the cells for 1 hr at 37° C. […] The assay was started by addition of 10 μL of solution from the compound plate into the cell plate. During this process, continuous fluorescent recordings were made simultaneously for all wells. After addition of the compound solution, the tips were automatically washed and a stimulation solution of 3 μM ATP (an agonist for an endogenous purinurgic GPCR, was added to all wells of the cell plate. The height of the response was calculated and percent inhibition values, versus negative control wells, was calculated for the test samples. Unless otherwise indicated, the data in the table below were determined using the three assays described above, providing percent inhibition data at 10 μM.

SMILES	IC50 [µM]
Nc1ccccc1P(=O)(c1ccccc1)c1ccccc1 [Example 4]	5
COc1ccccc1P(=O)(c1ccccc1)c1ccccc1 [Example 5]	> 100
CN(C)c1ccc(P(=O)(c2ccc(N(C)C)cc2)c2ccc(N(C)C)cc2)cc1 [Example 6]	> 100

Results, then the molecule that gave them:

IC50 [µM]	SMILES
5	O=P(c1ccccc1)(c1ccccc1)c1ccc(O)cc1 [Example 3]
5	O=P(c1ccccc1)(c1ccccc1)c1ccccc1 [Example 1]
5	O=P(c1ccccc1)(c1ccccc1)c1ccccc1O [Example 2]
